From the Kinase Knowledgebase extract (Sharma et al. 2016)
pIC50: −log10 of the molar value.

molecular target: CDK2 (human) (UniProt P24941); test: Enzyme Assay

Going from O=C(NCCN1CCOCC1)c1ccc(C(=O)Nc2ccc(-n3cncn3)cc2)s1 to Cc1cc(OCCN2CCOCC2)ccc1NC(=O)c1ccc(C(=O)Nc2ccc(-n3cncn3)cc2)s1, the pIC50 rises from no more than 4.40 to no less than 6.00.

First: Cc1cc(Cn2ccnc2)ccc1NC(=O)c1ccc(C(=O)Nc2ccc(-n3cncn3)c(F)c2)s1
Second: O=C(Nc1ccc(-n2cncn2)c(F)c1)c1ccc(C(=O)Nc2ccccc2-n2cccn2)s1
The pIC50 of the first is higher: no less than 6.00 for the first, no more than 4.40 for the second.

COc1ccc(C(=O)Nc2ccc(C(=O)Nc3ccc(-n4cncn4)cc3)o2)cc1 and COc1cccc(NC(=O)c2ccc(C(=O)Nc3ccc(-n4cncn4)cc3)s2)c1 cannot be ordered by pIC50: no more than 4.40 for the first, no more than 4.40 for the second.

O=C(Nc1ccc(-n2cncn2)cc1)c1ccc(C(=O)Nc2nccs2)s1 and Cc1cnc(NC(=O)c2ccc(C(=O)Nc3ccc(-n4cncn4)cc3)s2)s1 cannot be ordered by pIC50: no more than 4.40 for the first, no more than 4.40 for the second.

Cc1ccccc1NC(=O)c1ccc(C(=O)Nc2ccc(-n3cncn3)cc2)s1 and Cc1cc(O)ccc1NC(=O)c1ccc(C(=O)Nc2ccc(-n3cncn3)cc2)s1 cannot be ordered by pIC50: no less than 6.00 for the first, no less than 6.00 for the second.

First: Cc1cc(OCCO)ccc1NC(=O)c1ccc(C(=O)Nc2ccc(-n3cncn3)cc2)s1
Second: O=C(Nc1ccc(-n2cncn2)cc1)c1ccc(C(=O)Nc2cc(F)ccc2F)s1
The pIC50 of the first is higher: no less than 6.00 for the first, no more than 4.40 for the second.

C[C@@H](NC(=O)c1ccc(C(=O)Nc2ccc(-n3cncn3)cc2)s1)C1CCCCC1 and O=C(Nc1ccc(-n2cncn2)cc1)c1ccc(C(=O)N[C@@H]2CC3CCC2C3)s1 (stereo partly drawn) cannot be ordered by pIC50: no more than 4.40 for the first, no more than 4.40 for the second.

O=C(Nc1ccc(-n2cncn2)cc1)c1ccc(C(=O)Nc2cccc(-c3cnco3)c2)s1 and Nc1ccc(CNC(=O)c2ccc(C(=O)Nc3ccc(-n4cncn4)cc3)s2)cn1 cannot be ordered by pIC50: no more than 4.40 for the first, no more than 4.40 for the second.

COc1ccc(NC(=O)c2ccc(C(=O)N3CCC(c4ccncc4)C3)s2)c(C)c1 (stereo not drawn) and COc1ccc(NC(=O)c2ccc(C(=O)Nc3ccc(C(N)=O)cc3)s2)c(C)c1 cannot be ordered by pIC50: 4.40 to 6.00 for the first, no more than 4.40 for the second.
